Experimental data published in US12485114B2, “Materials and methods useful to induce cancer cell death via methuosis or autophagy or a combination thereof” (The University of Toledo, priority 2017, dated 2025).

Experiments:
TFEB-mTOR pathway = assay: mTOR, Beclin-1 and LC3B-II autophagy related markers; type: cell-based
Description: (§1) Autophagosome and lysosomal homeostasis is governed by transcription factor EB (TFEB)—mTOR signaling pathways (TFEB-mTOR pathway). […] (FIG. 51A & FIG. 51B & FIG. 51C).

[1] = tested on: normal epithelial colon cells (CRL-1459); assay: Morphological assessment of vacuolization in normal cells; type: cell-based; settings: CRL-1459 normal cells
Description: (§2) The methuophagy inducing activities of BAPT-27 were also prominent in different colon cancer cell lines with different genetic profiles. […] (FIG. 42). However, the vacuoles formation was not prominent in normal epithelial colon cells (CRL-1459). (FIG. 42).

lysosomes = assay: Lysotracker red dye accumulation; type: cell-based
[2] = tested on: resistant lung cancer cell lines H460-MX20; assay: Reversal of multidrug resistance, combined with mitoxantrone; type: cell-based
Description: (§3) The cells became sensitive to the cytotoxicity of mitoxantrone when combined with BAPT-27. Further, BAPT-27 induced death in apoptosis resistant cell lines including colon cancer cell lines that are missing important pro-apoptotic genes Bax and Bak using well established models (HCT116, HCT116 Bax −/−, HCT116 Bak −/−, HCT116 Bax/Bak−/−). Accordingly, BAPT-27 represents a family of compounds that induce cell death in sensitive and resistant cancers, as well as those cancers that are refractory to death by conventional apoptosis inducing anticancer agents.
(§4) (FIG. 46). NSCLC cells resistant to apoptosis are also sensitive to the activities of BAPT-27.

[3] = tested on: resistant colon cancer cell lines S1M180; assay: as above; type: cell-based
Description: as §3, §4

JNK1 = target: T1, JNK1 (Homo sapiens, UniProt P45983); assay: Kinome screening (DiscoverX) against 468 kinases; type: binding
T1 construct: purchased DiscoverX (KINOMEscan)
T1 sequence (P45983 whole entry): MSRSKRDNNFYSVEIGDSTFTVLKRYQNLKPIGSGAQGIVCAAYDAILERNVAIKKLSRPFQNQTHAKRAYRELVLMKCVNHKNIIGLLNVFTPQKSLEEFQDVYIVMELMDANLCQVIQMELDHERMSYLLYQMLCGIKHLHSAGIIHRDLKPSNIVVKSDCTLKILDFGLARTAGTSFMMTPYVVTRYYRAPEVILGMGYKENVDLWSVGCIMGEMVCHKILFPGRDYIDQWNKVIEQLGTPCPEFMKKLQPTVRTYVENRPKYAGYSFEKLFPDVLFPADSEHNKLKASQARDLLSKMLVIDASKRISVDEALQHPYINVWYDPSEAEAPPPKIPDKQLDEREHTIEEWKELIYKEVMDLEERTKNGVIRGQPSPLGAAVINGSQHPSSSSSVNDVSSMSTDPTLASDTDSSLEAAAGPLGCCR
Procedure: (§5) FIG. 49A: Image showing the effect of Image was generated using TREEspot™ Software Tool and reprinted with permission from KINOMEscan®, a division of DiscoveRx Corporation, @ DISCOVERX CORPORATION 2010. Selectivity Score or S-score is a quantitative measure of compound selectivity. It was calculated by dividing the number of kinases that BAPT-27 bind to by the total number of distinct kinases tested, excluding mutant variants.

DYRK1A = target: T2, DYRK1A (Homo sapiens, UniProt Q13627); assay: Kinome screening (DiscoverX) against 468 kinases; type: binding
T2 construct: purchased DiscoverX (KINOMEscan)
Procedure: as §5

JNK2 = target: T3, JNK2 (Homo sapiens, UniProt P45984); assay: Kinome screening (DiscoverX) against 468 kinases; type: binding
T3 construct: purchased DiscoverX (KINOMEscan)
T3 sequence (P45984 whole entry): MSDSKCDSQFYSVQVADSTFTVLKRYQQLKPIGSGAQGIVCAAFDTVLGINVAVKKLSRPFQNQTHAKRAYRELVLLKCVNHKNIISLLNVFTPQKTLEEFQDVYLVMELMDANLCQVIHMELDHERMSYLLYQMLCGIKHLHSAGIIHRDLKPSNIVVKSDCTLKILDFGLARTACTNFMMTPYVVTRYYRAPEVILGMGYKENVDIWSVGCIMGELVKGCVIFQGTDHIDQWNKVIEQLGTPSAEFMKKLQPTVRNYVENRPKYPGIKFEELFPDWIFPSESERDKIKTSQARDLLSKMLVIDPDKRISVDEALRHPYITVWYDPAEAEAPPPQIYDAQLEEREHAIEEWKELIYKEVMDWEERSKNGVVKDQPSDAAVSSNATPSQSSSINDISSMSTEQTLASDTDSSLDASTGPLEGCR
Procedure: as §5

ABL1 T315I = target: T4, ABL1 T315I (Homo sapiens, UniProt P00519, T315I); assay: Kinome screening (DiscoverX) against 468 kinases; type: binding
T4 construct: purchased DiscoverX (KINOMEscan)
Procedure: as §5

FLT3(D835V) = target: T5, FLT3(D835V) (Homo sapiens, UniProt P36888, D835V); assay: Kinome screening (DiscoverX) against 468 kinases; type: binding
T5 construct: purchased DiscoverX (KINOMEscan)
Procedure: as §5

JNK3 = target: T6, JNK3 (Homo sapiens, UniProt P53779); assay: Kinome screening (DiscoverX) against 468 kinases; type: binding
T6 construct: purchased DiscoverX (KINOMEscan)
T6 sequence (P53779 whole entry): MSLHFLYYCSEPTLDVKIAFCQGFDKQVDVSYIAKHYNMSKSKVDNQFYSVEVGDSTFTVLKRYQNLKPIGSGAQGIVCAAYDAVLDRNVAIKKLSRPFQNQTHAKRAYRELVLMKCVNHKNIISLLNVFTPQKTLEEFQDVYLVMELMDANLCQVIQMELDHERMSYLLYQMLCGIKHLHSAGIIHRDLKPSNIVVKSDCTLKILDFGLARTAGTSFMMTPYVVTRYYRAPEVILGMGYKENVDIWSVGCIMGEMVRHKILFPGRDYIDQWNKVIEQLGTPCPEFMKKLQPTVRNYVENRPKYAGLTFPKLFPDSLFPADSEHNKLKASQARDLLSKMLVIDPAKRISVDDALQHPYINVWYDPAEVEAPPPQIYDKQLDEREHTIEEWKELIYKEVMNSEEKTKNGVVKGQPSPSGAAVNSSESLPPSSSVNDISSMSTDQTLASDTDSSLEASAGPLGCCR
Procedure: as §5

FLT3(ITD, D835V) = assay: Kinome screening (DiscoverX) against 468 kinases; type: binding
Procedure: as §5

[4] = target: T7, phosphoinositide 5-kinase (PIKfyve) (Homo sapiens, UniProt Q9Y2I7); assay: Kinome screening (DiscoverX) against 468 kinases; type: binding
T7 construct: purchased DiscoverX (KINOMEscan)
T7 sequence (Q9Y2I7 whole entry): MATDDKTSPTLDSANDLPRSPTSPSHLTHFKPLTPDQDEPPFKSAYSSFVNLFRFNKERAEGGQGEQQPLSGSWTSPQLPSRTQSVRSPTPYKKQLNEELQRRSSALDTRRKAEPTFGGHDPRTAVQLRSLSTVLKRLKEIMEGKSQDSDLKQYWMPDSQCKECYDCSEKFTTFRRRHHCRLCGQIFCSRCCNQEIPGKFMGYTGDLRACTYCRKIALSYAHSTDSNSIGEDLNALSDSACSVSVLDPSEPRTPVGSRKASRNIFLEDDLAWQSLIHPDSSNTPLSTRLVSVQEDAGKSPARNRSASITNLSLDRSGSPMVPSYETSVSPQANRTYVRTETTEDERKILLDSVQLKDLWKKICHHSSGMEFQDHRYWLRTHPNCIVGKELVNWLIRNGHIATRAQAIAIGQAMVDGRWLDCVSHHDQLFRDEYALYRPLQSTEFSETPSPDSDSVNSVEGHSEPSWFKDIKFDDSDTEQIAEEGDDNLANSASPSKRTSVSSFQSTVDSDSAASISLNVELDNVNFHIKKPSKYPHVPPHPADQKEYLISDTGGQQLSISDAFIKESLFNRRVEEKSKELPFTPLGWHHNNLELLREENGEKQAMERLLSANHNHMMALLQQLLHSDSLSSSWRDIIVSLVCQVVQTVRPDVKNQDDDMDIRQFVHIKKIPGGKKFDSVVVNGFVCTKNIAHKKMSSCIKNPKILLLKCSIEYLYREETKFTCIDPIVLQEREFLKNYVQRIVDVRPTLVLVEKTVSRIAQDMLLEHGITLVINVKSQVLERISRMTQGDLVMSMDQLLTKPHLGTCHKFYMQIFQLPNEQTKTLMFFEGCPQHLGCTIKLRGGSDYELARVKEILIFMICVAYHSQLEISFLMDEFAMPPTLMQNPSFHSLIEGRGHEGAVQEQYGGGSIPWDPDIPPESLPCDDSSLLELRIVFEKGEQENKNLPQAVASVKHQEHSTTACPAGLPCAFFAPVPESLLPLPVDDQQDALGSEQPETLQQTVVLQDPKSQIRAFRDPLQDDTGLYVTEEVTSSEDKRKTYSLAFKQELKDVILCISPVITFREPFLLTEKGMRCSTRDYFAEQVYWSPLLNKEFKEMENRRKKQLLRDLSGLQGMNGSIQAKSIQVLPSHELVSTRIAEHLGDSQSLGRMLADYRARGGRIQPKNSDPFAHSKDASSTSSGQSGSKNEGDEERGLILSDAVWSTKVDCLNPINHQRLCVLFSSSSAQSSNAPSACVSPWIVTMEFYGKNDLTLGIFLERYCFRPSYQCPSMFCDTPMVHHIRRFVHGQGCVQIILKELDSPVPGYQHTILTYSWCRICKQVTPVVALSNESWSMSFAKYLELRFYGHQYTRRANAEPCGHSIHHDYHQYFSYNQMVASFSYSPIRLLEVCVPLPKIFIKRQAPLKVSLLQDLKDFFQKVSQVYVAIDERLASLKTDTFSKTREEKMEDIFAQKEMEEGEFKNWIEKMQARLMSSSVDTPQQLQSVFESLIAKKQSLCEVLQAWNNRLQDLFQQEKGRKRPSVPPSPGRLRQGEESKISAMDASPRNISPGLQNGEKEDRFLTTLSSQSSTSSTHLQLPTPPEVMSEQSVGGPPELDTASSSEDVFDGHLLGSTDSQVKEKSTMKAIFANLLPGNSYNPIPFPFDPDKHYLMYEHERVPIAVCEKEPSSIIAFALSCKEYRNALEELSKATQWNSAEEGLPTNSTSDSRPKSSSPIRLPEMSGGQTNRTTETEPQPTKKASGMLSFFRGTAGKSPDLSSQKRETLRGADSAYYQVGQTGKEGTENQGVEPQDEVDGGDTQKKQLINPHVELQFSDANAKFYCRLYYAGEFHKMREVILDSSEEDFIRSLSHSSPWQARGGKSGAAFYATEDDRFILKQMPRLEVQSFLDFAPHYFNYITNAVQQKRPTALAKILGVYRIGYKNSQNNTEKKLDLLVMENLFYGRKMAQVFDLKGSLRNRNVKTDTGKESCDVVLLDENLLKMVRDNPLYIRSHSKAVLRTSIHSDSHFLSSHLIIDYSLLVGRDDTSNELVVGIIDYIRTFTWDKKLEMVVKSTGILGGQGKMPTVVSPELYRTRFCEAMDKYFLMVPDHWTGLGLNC
Procedure: as §5

[5] = tested on: HCT116 colon cancer cells; assay: Colony formation assay; type: cell-based
Procedure: The cytotoxic efficacy of BAPT-27 was also confirmed by colony formation assay. Colony formation assay was used to determine the long-term capacities of the compound to inhibit cell proliferation and viability. The cells were treated for 2 or 3 days and allowed to grow in compound free medium for up to two weeks. […] It was also observed that a higher concentration of BAPT-27 was needed to reduce the colony formation at 48 h compared to longer treatment (72 h). (FIG. 28A).
The cells were treated for 2 or 3 days and allowed to grow in compound free medium for up to two weeks. […] The number of colonies formed/concentration at each time point is shown in the bar graph in FIG. 28B.

[6] = tested on: Transcription factor EB (TFEB)— associated lysosomal and autophagy genes; assay: RNA-seq analysis of TFEB-associated lysosomal and autophagy genes; type: cell-based; settings: HCT-116, 10 μM, 6 h
Description: as §1

[7] = tested on: NSCLC cells resistant to apoptosis; assay: Activity in apoptosis-resistant NSCLC cells; type: cell-based
Description: as §4

[8] = tested on: autophagic signaling pathways; assay: Autophagy markers and autophagy inhibitors (acridine orange, LC3B, 3-MA, chloroquine); type: cell-based
Description: BAPT-27 induced vacuoles that combine both methuosis and autophagy characteristics. […] The author mechanism involved in this non-conventional cell death mechanism is a special type of […] that has been termed methuosis. The treatment of cells by BAPT-27 caused the displacement of the cytoplasm by vacuoles derived from macropinosomes. At early time points, the vacuoles are small in size. The small vacuoles then increase in number, and then fuse with each other over time forming larger vacuoles that cover the whole cytoplasm. Eventually, this causes a disturbance of the cell membrane and burst of the cells, release of fluids, detachment of cell, and death. […] Accordingly, alteration in both autophagic and methuosis mechanisms are involved in the BAPT-27 cell death process.
Without wishing to be bound by theory, it is believed that the mechanism by which BAPT-27 is produces its activities is due to alteration in key signaling pathways and several cellular events: (1) significant activation of macropinocytosis (FIGS. 32-33), and (2) significant alteration in autophagic signaling resulting in the accumulation of autophagic markers such as LC3 II and acridine orange (FIG. 37).
At 6 h treatment, the vacuoles were tiny and smaller in size in combination compared to BAPT-27 alone. (FIG. 48). […] (FIG. 48).

HCT-116 (colon cancer) = assay: Morphological assessment of vacuolization; type: cell-based
Description: as §2

[9] = tested on: HT29 colon cancer cell line; assay: Morphological assessment of vacuolization; type: cell-based
Description: as §2

[10] = tested on: HCT15 colon cancer cell line; assay: Morphological assessment of vacuolization; type: cell-based
Description: as §2

[11] = cells became sensitive to mitoxantrone in combination

**Q.** `Sc1nnc(-c2ccncc2)n1/N=C/c1c[nH]c2ccccc12` [BAPT-27, 4-(((1H-Indol-3-Yl)Methylene)Amino)-5-(Pyridin-4-Yl)-4H-1,2,4-Triazole-3-Thiol] was tested. Which Beclin-1 level (TFEB-mTOR pathway) did it give?
**A.** The Beclin-1 level was “increased”.

**Q.** And the LC3B-II level (TFEB-mTOR pathway)?
**A.** The LC3B-II level was “increased”.

**Q.** And the mTOR level (TFEB-mTOR pathway)?
**A.** Its mTOR level is “significantly downregulated”.

**Q.** And the vacuoles formation [1]?
**A.** The vacuoles formation was “not prominent”.

**Q.** What about the “lysotracker red dye inside the formed vacuoles” value (lysosomes) of the same molecule?
**A.** The value was “significant accumulation”.

**Q.** And the “delivery and sensitivity of doxorubicin and mitoxantrone” value [2]?
**A.** Its value is “increase the delivery and enhanced sensitivity”.

**Q.** And the “reversal of multidrug resistance” value [2, 11]?
**A.** Its value is “reversed multidrug resistance”.

**Q.** And the “delivery and sensitivity of doxorubicin and mitoxantrone” value [3]?
**A.** Its value is “increase the delivery and enhanced sensitivity”.

**Q.** What about the “reversal of multidrug resistance” value [3, 11] of the same molecule?
**A.** The value was “reversed multidrug resistance”.

**Q.** And the inhibitory potency (JNK1)?
**A.** Its inhibitory potency is “shows inhibitory potency”.

**Q.** What about the inhibitory potency (DYRK1A) of the same molecule?
**A.** Its inhibitory potency is “shows inhibitory potency”.

**Q.** What about the inhibitory potency (JNK2) of the same molecule?
**A.** The inhibitory potency was “shows inhibitory potency”.

**Q.** And the inhibitory potency (ABL1 T315I)?
**A.** Its inhibitory potency is “shows inhibitory potency”.

**Q.** And the inhibitory potency (FLT3(D835V))?
**A.** The inhibitory potency was “shows inhibitory potency”.

**Q.** What about the inhibitory potency (JNK3) of the same molecule?
**A.** The inhibitory potency was “shows inhibitory potency”.

**Q.** And the inhibitory potency (FLT3(ITD, D835V))?
**A.** Its inhibitory potency is “shows inhibitory potency”.

**Q.** What about the inhibitory potency [4] of the same molecule?
**A.** Its inhibitory potency is “shows inhibitory potency”.

**Q.** What about the “colonies number and size” value ([5]; HCT116, 48 h and 72 h, especially after 72 h treatment) of the same molecule?
**A.** The value was “significant inhibition in the colonies number and size”.

**Q.** And the colony formation ([5]; treated two and three days, then compound free medium up to two weeks)?
**A.** Its colony formation is “significantly inhibited colony formation”.

**Q.** What about the “expression of TFEB-associated lysosomal and autophagy genes” value [6] of the same molecule?
**A.** The value was “upregulated”.

**Q.** And the “sensitivity to the activities of BAPT-27” value [7]?
**A.** The value was “sensitive”.

**Q.** What about the “LC3B cleavage and LC3B loci at the borders of the vacuoles” value [8] of the same molecule?
**A.** Its value is “induced the cleavage of LC3B”.

**Q.** What about the “acridine orange in vacuoles (activated acidic compartments)” value [8] of the same molecule?
**A.** Its value is “accumulation of acridine orange”.

**Q.** What about the “inhibition of vacuoles formation or cytotoxic effects by autophagy inhibitors 3-MA and chloroquine” value [8] of the same molecule?
**A.** The value was “did not inhibit”.

**Q.** And the “block of vacuoles formation by 3-methyl adenine” value ([8]; 3-MA 300 μM, BAPT-27 10 μM, 24 h and 72 hr)?
**A.** Its value is “does not block”.

**Q.** And the “effect of chloroquine on vacuoles formation” value ([8]; CQ 5 μM, BAPT-27 10 μM, 6 h)?
**A.** Its value is “delay of vacuoles formation”.

**Q.** And the “effect of chloroquine on vacuoles regaining normal size” value ([8]; CQ 5 μM, BAPT-27 10 μM, 24 h)?
**A.** Its value is “could not prevent”.

**Q.** And the vacuolization (HCT-116 (colon cancer))?
**A.** Its vacuolization is “extensive vacuoles formation”.

**Q.** What about the vacuolization [9] of the same molecule?
**A.** The vacuolization was “extensive vacuoles formation”.

**Q.** What about the vacuolization [10] of the same molecule?
**A.** The vacuolization was “extensive vacuoles formation”.
